“And” between values parts separate entries of the source, which are not always exact repeats. Equal values may be shown once.
Columns and labels:
Assay in all cases: Capturing ability analysis, peptide-bonded magnetic beads mixed with cells
Format in all cases: cell-based
[1] = test system: colorectal cancer cells (HCT-8); settings: colorectal cancer cell (HCT-8); 2×10^5 cells, room temperature, 25 rpm 30 minutes
Description: (§1) In one embodiment, the peptide sequences of Seq ID: NO. 1 to Seq ID: NO. 3 are respectively bonded to the beads and mixed with different cell lines , respectively, including colorectal cancer cells (HCT-8), colorectal cancer stem cells (CR-CSC), human hepatoma cells (HepG2), human in situ pancreatic cancer cells (BxPC-3), human lung adenocarcinoma cells (A549) and human breast cancer cells (MCF7). Wherein, the beads having peptide sequences are mixed with each cell line at room temperature for 25 rpm 30 minutes, and the cell number of each cell line is 2×10^5. After washing for several times, the number of cells captured with magnetic beads having the above peptide sequences are calculated and the results are shown as Table 1 below.

[2] = test system: colorectal cancer stem cells (CR-CSC); settings: colorectal cancer stem cell (CR-CSC); 2×10^5 cells, room temperature, 25 rpm 30 minutes
Description: as §1

[3] = test system: human breast cancer cells (MCF7); settings: human breast cancer cell (MCF7); 2×10^5 cells, room temperature, 25 rpm 30 minutes
Description: as §1

[4] = test system: human hepatoma cells (HepG2); settings: human hepatoma cell (HepG2); 2×10^5 cells, room temperature, 25 rpm 30 minutes
Description: as §1

[5] = test system: human in situ pancreatic cancer cells (BxPC-3); settings: human in situ pancreatic cancer cell (BxPC-3); 2×10^5 cells, room temperature, 25 rpm 30 minutes
Description: as §1

[6] = test system: human lung adenocarcinoma cells (A549); settings: human lung adenocarcinoma cell (A549); 2×10^5 cells, room temperature, 25 rpm 30 minutes
Description: as §1

Substance | Capturing ability (%) [1] | Capturing ability (%) [2] | Capturing ability (%) [3] | Capturing ability (%) [4] | Capturing ability (%) [5] | Capturing ability (%) [6]
Seq ID: NO. 1: peptide sequence screened from M13 phage display peptide library, having binding specificity and affinity to HCT-8 or CR-CSC (AELAKLPLF) | 43.30% and 43.40 ± 7.23% | 22.97 ± 4.29% | 12.84 ± 7.67% | 23.60 ± 3.50% | 3.41 ± 1.14% | 28.51 ± 7.09%
Seq ID: NO. 2: peptide sequence screened from M13 phage display peptide library, having binding specificity and affinity to HCT-8 or CR-CSC (GAISFDHVHP) | 45.16% and 45.16 ± 7.12% | 20.85 ± 0.61% | 20.45 ± 4.04% | 23.02 ± 2.77% | 3.13 ± 0.62% | 34.29 ± 5.22%
Seq ID: NO. 3: peptide sequence screened from M13 phage display peptide library, having binding specificity and affinity to HCT-8 or CR-CSC (MNAKWPIENLMN) | 9.42 ± 2.67% | 49.79% and 49.79 ± 5.34% | 10.68 ± 5.08% | 17.87 ± 6.18% | 3.58 ± 1.18% | 16.77 ± 6.49%

Reference: patent publication US20160153997A1, “OLIGOPEPTIDE SPECIFIC TO COLORECTAL CANCER CELL AND APPLICATION THEREOF” (National Tsing Hua University, priority 2014, published 2016)
